{
  "source": "paper PMC5658362",
  "about": "(Scientific Reports, 2017)",
  "key": {"TlpC LBD": {"biological_target": "T1, TlpC LBD (Helicobacter pylori, UniProt O24911)", "T1 sequence (O24911 34-297 Y285F)": "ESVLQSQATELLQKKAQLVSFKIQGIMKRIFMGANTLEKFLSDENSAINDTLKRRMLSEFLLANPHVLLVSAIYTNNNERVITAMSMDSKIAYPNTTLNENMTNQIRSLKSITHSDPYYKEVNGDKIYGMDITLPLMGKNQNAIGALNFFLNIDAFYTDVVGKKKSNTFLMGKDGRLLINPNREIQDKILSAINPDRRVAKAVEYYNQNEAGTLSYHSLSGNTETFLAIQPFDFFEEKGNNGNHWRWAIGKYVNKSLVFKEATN", "experiment": "ITC titration of TlpC LBD variant with lactate", "format": "binding", "settings": "text prints Y285A substitution"}, "TlpC LBD native": {"biological_target": "TlpC LBD native (Helicobacter pylori, UniProt O24911)", "experiment": "ITC titration of TlpC LBD with ligand", "format": "binding", "settings": "for heat release or absorption on titration (binding): 5 mM ligand into 10 µM protein", "description": "(§1) The expression vectors for single-point variants of TlpC LBD in which S104, Y151, K153, N213, I218 or Y285 were replaced by alanine, and Y249 by phenylalanine, were prepared from a TlpC-expressing plasmid described previously. This plasmid expresses codon-optimised H. pylori 26695 TlpC LBD consisting of amino acid residues 34–297 (Fig. 1a). Mutants were created using the QuikChange Mutagenesis Kit (Stratagene). TlpC LBD and its variants were expressed and purified following the previously published procedure.\n(§2) Measurements were performed on a MicroCal VP-ITC instrument microcalorimeter (MicroCal) at 25 °C. […] The data was fitted to a single-site binding model using non-linear least-squares regression (Origin 7, OriginLab, USA), yielding the binding enthalpy ∆H, dissociation constant K D, and binding entropy […]. Each experiment was repeated three times."}, "TlpC LBD N213A": {"biological_target": "T2, TlpC LBD N213A (Helicobacter pylori, UniProt O24911, N213A)", "T2 sequence (O24911 34-297 N213A)": "T1 sequence (O24911 34-297 Y285F)", "experiment": "ITC titration of TlpC LBD variant with lactate", "format": "binding", "description": "as §1, §2"}, "TlpC LBD Y151A": {"biological_target": "T3, TlpC LBD Y151A (Helicobacter pylori, UniProt O24911, Y151A)", "T3 sequence (O24911 34-297 Y151A)": "T1 sequence (O24911 34-297 Y285F)", "experiment": "ITC titration of TlpC LBD variant with lactate", "format": "binding", "description": "as §1, §2"}, "TlpC LBD K153A": {"biological_target": "T4, TlpC LBD K153A (Helicobacter pylori, UniProt O24911, K153A)", "T4 sequence (O24911 34-297 K153A)": "T1 sequence (O24911 34-297 Y285F)", "experiment": "ITC titration of TlpC LBD variant with lactate", "format": "binding", "description": "as §1, §2"}, "TlpC LBD I218A": {"biological_target": "T5, TlpC LBD I218A (Helicobacter pylori, UniProt O24911, I218A)", "T5 sequence (O24911 34-297 I218A)": "T1 sequence (O24911 34-297 Y285F)", "experiment": "ITC titration of TlpC LBD variant with lactate", "format": "binding", "description": "as §1, §2"}, "TlpC LBD S104A": {"biological_target": "T6, TlpC LBD S104A (Helicobacter pylori, UniProt O24911, S104A)", "T6 sequence (O24911 34-297 S104A)": "T1 sequence (O24911 34-297 Y285F)", "experiment": "ITC titration of TlpC LBD variant with lactate", "format": "binding", "description": "as §1, §2"}, "[1]": {"tested_on": "wild-type H. pylori PMSS1", "experiment": "Swimming behaviour (direction change) chemotaxis assay, wild type", "format": "cell-based, Helicobacter pylori"}, "ΔtlpC H. pylori PMSS1": {"tested_on": "ΔtlpC H. pylori PMSS1", "experiment": "Swimming behaviour (direction change) chemotaxis assay, ΔtlpC mutant", "format": "cell-based, Helicobacter pylori"}, "H. pylori": {"tested_on": "H. pylori", "settings": "cited from earlier work"}, "McpP": {"biological_target": "McpP", "parameters": "method as in PMID 26048936", "settings": "P. aeruginosa sCACHE receptor McpP; cited from earlier work"}},
  "note": "“Also recorded” adds a separate entry of the source. Structures can show the parent of a compound that is named as a salt.",
  "data": [
    {"smiles": "CC(O)C(=O)O", "note": "(centres unmarked) [lactate]", "values": [
      {"measurement": "effect of substitution on lactate binding", "setting": "TlpC LBD", "value": "abolished the binding"},
      {"measurement": "Enthalpy, ∆H", "setting": "TlpC LBD native; native TlpC LBD", "value": "−21,323.3 ± 713.0 cal/mol"},
      {"measurement": "Entropy, ∆S", "setting": "TlpC LBD native; native TlpC LBD", "value": "−54.1 ± 2.0", "unit": "cal/mol/degree"},
      {"measurement": "effect of substitution on lactate binding", "setting": "TlpC LBD N213A", "value": "abolished the binding"},
      {"measurement": "Enthalpy, ∆H", "setting": "TlpC LBD Y151A", "value": "−12,040 ± 250.2 cal/mol"},
      {"measurement": "Entropy, ∆S", "setting": "TlpC LBD Y151A", "value": "−24.1 ± 1.0", "unit": "cal/mol/degree"},
      {"measurement": "Enthalpy, ∆H", "setting": "TlpC LBD K153A", "value": "−12,730 ± 345.0 cal/mol"},
      {"measurement": "Entropy, ∆S", "setting": "TlpC LBD K153A", "value": "−27.5 ± 1.0", "unit": "cal/mol/degree"},
      {"measurement": "Enthalpy, ∆H", "setting": "TlpC LBD I218A", "value": "−18,145.0 ± 49.0 cal/mol"},
      {"measurement": "Entropy, ∆S", "setting": "TlpC LBD I218A", "value": "−49.4 ± 0.2", "unit": "cal/mol/degree"},
      {"measurement": "Enthalpy, ∆H", "setting": "TlpC LBD S104A", "value": "−13,105 ± 318.0 cal/mol"},
      {"measurement": "Entropy, ∆S", "setting": "TlpC LBD S104A", "value": "−28.2 ± 1.0", "unit": "cal/mol/degree"},
      {"measurement": "chemotactic (attractant) response, direction changes in 3 s", "setting": "[1]; 0.1 mM lactate", "value": "significant response; also recorded: strongest"},
      {"measurement": "chemotactic (attractant) response, direction changes in 3 s", "setting": "[1]; 1.0 mM lactate", "value": "detectable"},
      {"measurement": "chemotactic (attractant) response, direction changes in 3 s", "setting": "[1]; 10 mM lactate", "value": "not detectable; also recorded: did not elicit a positive chemotactic response"},
      {"measurement": "chemotactic (attractant) response, direction changes in 3 s", "setting": "[1]; concentrations higher than 0.1 mM", "value": "lost the response"},
      {"measurement": "optimal concentration at which lactate is sensed as attractant", "setting": "[1]; order of magnitude, tested 0.1-10 mM", "value": 0.1, "unit": "mM"},
      {"measurement": "chemotactic response to lactate", "setting": "ΔtlpC H. pylori PMSS1; all tested concentrations (0.1, 1, 10 mM)", "value": "abolished the chemotactic response; also recorded: drastically reduced"},
      {"measurement": "concentration with inhibitory effect on H. pylori growth", "setting": "H. pylori", "value": "≥ 10", "unit": "mM"},
      {"measurement": "inhibitory effect on H. pylori viability among tested SCFA", "setting": "H. pylori; short chain fatty acids secreted by LAB", "value": "strongest inhibitory effect"},
      {"measurement": "Kd", "setting": "McpP", "value": 107, "unit": "µM"}
    ]},
    {"smiles": "Cl", "note": "[HCl]", "values": [
      {"measurement": "chemotaxis response (repellent)", "setting": "ΔtlpC H. pylori PMSS1; 10 mM HCl", "value": "retained chemotaxis responses"}
    ]},
    {"smiles": "CC(=O)O", "note": "[acetate]", "values": [
      {"measurement": "binding to McpP", "setting": "McpP", "value": "binds"}
    ]},
    {"smiles": "O=C(O)CC(O)C(=O)O", "note": "(centres unmarked) [malate]", "values": [
      {"measurement": "heat release or absorption on titration (binding)", "setting": "TlpC LBD native", "value": "no significant heat release or absorption"}
    ]},
    {"smiles": "c1ccc(-c2ccccn2)nc1", "note": "[dipyridyl]", "values": [
      {"measurement": "chemotaxis response (attractant)", "setting": "ΔtlpC H. pylori PMSS1; 50 μM dipyridyl", "value": "retained chemotaxis responses"}
    ]},
    {"smiles": "CCC(=O)O", "note": "[propionate]", "values": [
      {"measurement": "binding to McpP", "setting": "McpP", "value": "binds"}
    ]},
    {"smiles": "CC(=O)C(=O)O", "note": "[pyruvate]", "values": [
      {"measurement": "heat release or absorption on titration (binding)", "setting": "TlpC LBD native", "value": "no significant heat release or absorption"},
      {"measurement": "binding to McpP", "setting": "McpP", "value": "binds"}
    ]},
    {"smiles": "O=C(O)CC(=O)C(=O)O", "note": "[oxaloacetate]", "values": [
      {"measurement": "heat release or absorption on titration (binding)", "setting": "TlpC LBD native", "value": "no significant heat release or absorption"}
    ]}
  ]
}
